Laboratory results reported in patent US9260760B2, “Method for determining complete response to anticancer therapy” (Board of Regents, The University of Texas System, priority 2012, dated 2016).
Values joined by “and” are separate entries in the source; they are usually repeats but may differ in a detail not shown here. Equal entries are not always repeated.

Test system: metastatic colorectal cancer
Test: Study 1: retrospective cohort, XCEL with or without radiation; tumor response (RECIST), PFS and OS
Type: in vivo, human
Excerpt: The institutional review board of The University of Texas M. D. Anderson Cancer Center approved this retrospective expanded cohort study. Between October 2000 and December 2003, seventy-four patients with metastatic colorectal cancer received capecitabine with concurrent celecoxib (n=66), or rofecoxib (n=2), ibuprofen (n=2), sulindac (n=2) and high dose aspirin (n=2).
The radiation was delivered to the target area using 18 MV photons with 3-D conformal planning technique. The dose of radiation was either 35-40 Gy (n=18) or >45 Gy (n=15) with dose radiation missing in one patient. […] Celecoxib was continued with capecitabine to prevent HFS and to improve survival.
All patients were subjected to routine clinical examinations, laboratory analyses, and computed tomography. Patients were seen weekly during radiotherapy if treated on site or every 6-9 weeks with physical examinations, laboratory tests, and computed tomography. Treatment-related toxicity was graded using the National Institutes of Health's Common Toxicities Criteria (CTC) version 2.0. Tumor responses were evaluated using RECIST criteria. Complete response was defined as complete radiographic disappearance of measurable or evaluable disease or stable, minimal radiographic findings; partial response was defined as reduction of the longest dimension of measurable disease by at least 50%; stable disease was defined as reduction of the longest dimension by less than 25%; These responses or stable must be confirmed at least by 3 months interval evaluation; Progressive disease was defined as growth of the tumor by more than 25% in the longest dimension or development of new lesions. Overall response rate was defined as the sum of the complete and partial response rates and the tumor control rate was defined as the sum of overall response rates with stable disease rates. The date of death was ascertained through the cancer registry or through a search of patients' social security numbers in the Social Security Death Index (ssdi.genealogy.rootsweb.com). The cutoff point for collection of data was April 2004.
Continuous variables were summarized using the mean (±standard deviation) or the median (range). […] Progression-free and overall survival distributions were summarized using the method of Kaplan and Meier. Differences in progression-free and overall survival by subgroup were analyzed using the log-rank test. Multivariate models of predictors of progression-free survival and overall survival were evaluated using the proportional hazards (Cox) regression model. P<0.05 was considered statistically significant.

[1] = First-line responders, no radiation (n = 5)
[2] = First-line responders, radiation (n = 4)
[3] = First-line, no radiation (n = 14)
[4] = Second-line, no radiation (n = 13)
[5] = Second-line, radiation (n = 20)
[6] = second-line XCEL, progressed on 5FU and irinotecan (n=28)
[7] = second-line with 9 first-line responding patients included
[8] = second-line, irinotecan refractory

Structure (SMILES): Cc1ccc(-c2cc(C(F)(F)F)nn2-c2ccc(S(N)(=O)=O)cc2)cc1 [XCEL]
- Overall Survival, Median (95% CI) (All): 22.0 (17.8-31.5) months
- Progression-free survival, Median (95% CI) (All): 8.3 (7.0-11.0) months
- Overall Survival, Median (95% CI) (CEA >3.0 ng/ml): 20.0 (16.2-26.9) months
- Progression-free survival, Median (95% CI) (CEA >3.0 ng/ml): 7.1 (5.7-9.4) months
- Overall Survival, Median (95% CI) (CEA ≦3.0 ng/ml): 31.5 (18.0-NR) months
- Progression-free survival, Median (95% CI) (CEA ≦3.0 ng/ml): 16.8 (9.4-NR) months
- Complete response [1]: 4 (80) No. of patients (%)
- Overall response [1]: 4 (80) No. of patients (%)
- Partial response [1]: 0 (0) No. of patients (%)
- Stable disease [1]: 0 (0) No. of patients (%)
- Tumor control [1]: 4 (80) No. of patients (%)
- Complete response [2]: 3 (75) No. of patients (%)
- Overall response [2]: 4 (100) No. of patients (%)
- Partial response [2]: 1 (0) No. of patients (%)
- Stable disease [2]: 0 (0) No. of patients (%)
- Tumor control [2]: 4 (100) No. of patients (%)
- Complete response [3]: 1 (7) No. of patients (%)
- Overall response [3]: 4 (29) No. of patients (%)
- Partial response [3]: 3 (21) No. of patients (%)
- Stable disease [3]: 8 (57) No. of patients (%)
- Tumor control [3]: 12 (86) No. of patients (%)
- Complete response (First-line, radiation (n = 10)): 3 (30) No. of patients (%)
- Overall response (First-line, radiation (n = 10)): 4 (40) No. of patients (%)
- Partial response (First-line, radiation (n = 10)): 3 (20) No. of patients (%)
- Stable disease (First-line, radiation (n = 10)): 4 (40) No. of patients (%)
- Tumor control (First-line, radiation (n = 10)): 8 (80) No. of patients (%)
- Progression-free survival, Median (95% CI) (LDH >618): 6.4 (4.3-7.2) months
- Progression-free survival, Median (95% CI) (LDH ≦618): 14.5 (9.2-26.3) months
- Overall Survival, Median (95% CI) (LDH ≦618 (normal level of LDH)): 31 months and 31.5 (23.6-NR) months
- Overall Survival, Median (95% CI) (No Radiation (RT)): 20.0 (16.6-22.8) months
- Progression-free survival, Median (95% CI) (No Radiation (RT)): 7.2 (4.8-9.4) months
- Complete response (No radiation (n = 32)): 4 (13) No. of patients (%)
- Overall response (No radiation (n = 32)): 10 (31) No. of patients (%)
- Partial response (No radiation (n = 32)): 6 (19) No. of patients (%)
- Stable disease (>4 months) (No radiation (n = 32)): 13 (41) No. of patients (%)
- Tumor control (No radiation (n = 32)): 23 (72) No. of patients (%)
- Overall Survival, Median (95% CI) (No surgery): 19.3 (16.2-26.9) months
- Progression-free survival, Median (95% CI) (No surgery): 7.8 (6.4-9.4) months
- Progression-free survival, Median (95% CI) (RT <45 Gy): 8.0 (6.4-14.6) months
- Overall Survival, Median (95% CI) (RT ≧45 Gy): 21.8 (17.6-NR) months
- Progression-free survival, Median (95% CI) (RT ≧45 Gy): 21.2 (7.1-21.2) months
- Complete response (Radiation (n = 34)): 9 (26) No. of patients (%)
- Overall response (Radiation (n = 34)): 15 (44) No. of patients (%)
- Partial response (Radiation (n = 34)): 6 (18) No. of patients (%)
- Stable disease (>4 months) (Radiation (n = 34)): 12 (35) No. of patients (%)
- Tumor control (Radiation (n = 34)): 27 (79) No. of patients (%)
- Complete response [4]: 0 No. of patients (%)
- Overall response [4]: 2 (15) No. of patients (%)
- Partial response [4]: 2 (15) No. of patients (%)
- Stable disease [4]: 5 (38) No. of patients (%)
- Tumor control [4]: 7 (54) No. of patients (%)
- Complete response [5]: 2 (10) No. of patients (%)
- Overall response [5]: 7 (35) No. of patients (%)
- Partial response [5]: 5 (25) No. of patients (%)
- Stable disease [5]: 8 (40) No. of patients (%)
- Tumor control [5]: 15 (75) No. of patients (%)
- Progression-free survival, Median (95% CI) (Surgery): 16.8 (8.3-31.4) months
- patients achieving complete response (after first-line response to irinotecan-based therapy): 7 of 9
- second line overall response rate (all 9 first-line irinotecan responders included): 40.5%
- complete response (CR) (all 66 patients): 20%
- overall response rate (all 66 patients): 38%
- partial response (PR) (all 66 patients): 18%
- tumor control rate (all 66 patients): 76%
- median PFS (first-line XCEL): 8.3 months
- median overall survival (first-line XCEL): 26.9 months
- Stable disease (%) (first-line XCEL (n=24)): 50%
- complete response (CR) (first-line XCEL (n=24)): 17%
- overall response rate (first-line XCEL (n=24)): 34% and 33%
- tumor control rate (first-line XCEL (n=24)): 84%
- complete responses (nineteen of 66 patients, XCEL alone or with radiation): 29%
- complete response by site (nodal metastasis): 51%
- complete response by site (peritoneum): 40%
- Stable disease (%) (second-line XCEL (n=28)): 50%
- complete response (CR) [6]: 7%
- overall response rate [6]: 25%
- tumor control rate [6]: 68%
- median overall survival [7]: 19.3 months
- median progression free survival [7]: 8.3 months
- median PFS [8]: 6.7 months
- median overall survival [8]: 17.8 months and 17.6 months
